The text below walks through data of patent EP0638553A1, “Carboxylic acid amides having a terminal carboxylic acid group as aggregation inhibiting drugs” (Dr. Karl Thomae GmbH, priority 1993, dated 1995).

Structures can show the parent of a compound that is named as a salt.

Data set [1] has as its system Humanthrombozyten. The data set can be described thus: Inhibition of the binding of ³H-BIBU 52 to human platelets (fibrinogen binding test). As to conditions: displacement of ³H-BIBU 52 (5 nM) from human platelets in plasma, 20 min at room temperature; read-out: Fibrinogen-Bindungstest IC₅₀. From the text: 1. Hemmung der Bindung von ³H-BIBU 52 an Humanthrombozyten:
Eine Suspension von Humanthrombozyten in Plasma wird mit ³H-BIBU 52 [= (3S,5S)-5-[(4'-Amidino-4-biphenylyl)oxymethyl]-3-[(carboxyl)methyl]-2-pyrrolidinon[3-³H-4-biphenylyl]], das den literaturbekannten Liganden ¹²⁵J-Fibrinogen ersetzt, (siehe deutsche Patentanmeldung P 42 14 245.8 der gleichen Anmelderin vom 30. 04. 1992, internes Zeichen: Case 5/1093-FL) und verschiedenen Konzentrationen der zu testenden Substanz inkubiert. Der freie und gebundene Ligand wird durch Zentrifugation getrennt und durch Szintillationszählung quantitativ bestimmt. Aus den Meßwerten wird die Hemmung der ³H-BIBU 52-Bindung durch die Testsubstanz bestimmt.
Hierzu wird aus einer Antikubitalvene Spenderblut entnommen und mit Trinatriumzitrat antikoaguliert (Endkonzentration 13 mM). Das Blut wird 10 Minuten bei 170 x g zentrifugiert und das überstehende plättchenreiche Plasma (PRP) abgenommen. Das Restblut wird zur Gewinnung von Plasma noch einmal scharf abzentrifugiert. Das PRP wird mit autologem Plasma 1:10 verdünnt. 750 ml werden mit 50 ml physiologischer Kochsalzlösung, 100 ml Testsubstanzlösung, 50 ml ¹⁴C-Sucrose (3.700 Bq) und 50 ml ³H-BIBU 52 (Endkonzentration: 5 nM) bei Raumtemperatur 20 Minuten inkubiert. Zur Messung der unspezifischen Bindung wird anstelle der Testsubstanz 5 ml BIBU 52 (Endkonzentration: […]) eingesetzt. Die Proben werden 20 Sekunden bei 10000 x g zentrifugiert und der Überstand abgezogen. 100 ml hiervon werden zur Bestimmung des freien Liganden gemessen. Das Pellet wird in 500 ml 0,2N NaOH gelöst, 450 ml werden mit 2 ml Szintillator und 25 ml 5N HCl versetzt und gemessen. Das im Pellet noch verbliebene Restplasma wird aus dem ¹⁴C-Gehalt bestimmt, der gebundene Ligand aus der ³H-Messung. Nach Abzug der unspezifischen Bindung wird die Pelletaktivität gegen die Konzentration der Testsubstanz aufgetragen und die Konzentration für eine 50%ige Hemmung der Bindung ermittelt.

Data set [2] concerns Thrombozytenaggregation. The data set can be described thus: Collagen-induced platelet aggregation in platelet-rich plasma (method of Born and Cross). It counts as cell-based. As to conditions: human platelet-rich plasma, 10 min preincubation at 37°C, 50% change of optical density, read-out: Hemmung der Plättchenaggregation EC₅₀. An excerpt:
2. Antithrombotische Wirkung
Die Thrombozytenaggregation wird nach der Methode von Born und Cross (J. Physiol. 170, 397 (1964)) in plättchenreichem Plasma gesunder Versuchspersonen gemessen. Zur Gerinnungshemmung wird das Blut mit Natriumcitrat 3,14 % im Volumenverhältnis 1:10 versetzt.
Collagen-induzierte Aggregation
Der Verlauf der Abnahme der optischen Dichte der Plättchensuspension wird nach Zugabe der aggregationsauslösenden Substanz photometrisch gemessen und registriert. Aus dem Neigungswinkel der Dichtekurve wird auf die Aggregationsgeschwindigkeit geschlossen. Der Punkt der Kurve, bei dem die größte Lichtdurchlässigkeit vorliegt, dient zur Berechnung der "optical density".
Die Collagen-Menge wird möglichst gering gewählt, aber doch so, daß sich eine irreversibel verlaufende Reaktionskurve ergibt. Verwendet wird das handelsübliche Collagen der Firma Hormonchemie, München.
Vor der Collagen-Zugabe wird das Plasma jeweils 10 Minuten mit der Substanz bei 37°C inkubiert.
Aus den erhaltenen Meßzahlen wird graphisch eine EC₅₀ bestimmt, die sich auf eine 50%ige Änderung der "optical density" im Sinne einer Aggregationshemmung bezieht.

In data set [3] the test system is Maus. Briefly: Tolerability after intravenous administration to the mouse. It counts as in vivo. The following applies: 30 mg/kg intravenous, 3 animals tested.

`O=C(O)CC1CCN(C(=O)c2ccc(CCC34CCN(CC3)CC4)cc2)CC1` [1(1), 4-Carboxymethyl-1-[4-[2-(4-chinuclidinyl)-ethyl]-benzoyl]-piperidin]: the IC50 in data set [1] worked out at 0.36 µM. Further, the EC50 in data set [2] was 0.61 µM.
`O=C(N[C@H]1CC[C@H](C(=O)O)CC1)c1ccc(CCC23CCN(CC2)CC3)cc1` [1(2), trans-4-[4-[2-(4-Chinuclidinyl)-ethyl]-benzoylamino]-cyclohexancarbonsäure]: the “Mortality (verstorbene Tiere)” value in data set [3] is on record as “keines der 3 getesteten Tiere verstarb”.
On to `CCCCS(=O)(=O)NC1(C(=O)O)CCC(NC(=O)N2CCC(OCC3CCNCC3)CC2)CC1` (stereo not drawn) [1(7), N-[1-Carboxy-cis-4-[[4-[(4-piperidinyl)-methyloxy]-1-piperidinyl]-carbonylamino]-cyclohexyl]-n-butansulfonamid], for which the IC50 in data set [1] amounted to 1.5 µM. In addition, in data set [2], the EC50 was determined as 3.1 µM.
Take `NC1(C(=O)O)CCC(NC(=O)N2CCC(OCC3CCNCC3)CC2)CC1` (stereo not drawn) [1(9), 1-Carboxy-cis-4-[[4-[(4-piperidinyl)-methyloxy]-1-piperidinyl]-carbonylamino]-cyclohexylamin]: in data set [1], the IC50 was 0.13 µM. Besides, in data set [2], the EC50 turned out to be 1.3 µM.
The corresponding values for `O=C(O)CN(CCNC(=O)N1CCC(OCC2CCNCC2)CC1)CC(=O)O` [1(14), N-Carboxymethyl-N-[2-[[4-[(4-piperidinyl)-methyloxy]-1-piperidinyl]-carbonylamino]-ethyl]-glycin] are 6.9 µM and 23 µM.
In the case of `O=C(NC1CCNCC1)c1ccc(C(=O)N[C@H]2CC[C@H](C(=O)O)CC2)cc1` [3(4), trans-4-[4-[(4-Piperidinyl)-aminocarbonyl]-benzoylamino]-cyclohexancarbonsäure-hydrochlorid], the IC50 in data set [1] was found to be 2.1 µM. Besides, the EC50 in data set [2] was 2.06 µM.
Take `O=C(O)CCC1CCN(C(=O)c2ccc(NCC3CCNCC3)cc2)CC1` [3(7), 4-(2-Carboxy-ethyl)-1-[4-[[(4-piperidinyl)-methyl]-amino]-benzoyl]-piperidin-hydrochlorid]: the IC50 in data set [1] is 49 µM. Besides, the EC50 in data set [2] came to 45 µM.
Take `O=C(O)CC1CCN(C(=O)c2ccc(NCC3CCNCC3)cc2)CC1` [3(8), 4-Carboxymethyl-1-[4-[[(4-piperidinyl)-methyl]-amino]-benzoyl]-piperidin-hydrochlorid]: the IC50 in data set [1] was 6.4 µM. Besides, the EC50 in data set [2] was 5.8 µM.
On to `O=C(N[C@H]1CC[C@H](C(=O)O)CC1)c1ccc(NC(=O)C2CCNCC2)cc1` [3(9), trans-4-[4-[(4-Piperidinyl)-carbonylamino]-benzoylamino]-cyclohexancarbonsäure-hydrochlorid], for which, in data set [1], the IC50 was determined as 2.3 µM. Further, the EC50 in data set [2] came to 3.2 µM.
`O=C(N[C@H]1CC[C@H](C(=O)O)CC1)c1cccc(OCC2CCNCC2)c1` [3(15), trans-4-[3-[(4-Piperidinyl)-methyloxy]-benzoylamino]-cyclohexancarbonsäure-hydrochlorid]: the IC50 in data set [1] came out at 0.63 µM. In addition, the EC50 in data set [2] came to 1.2 µM.
With `O=C(N[C@H]1CC[C@H](C(=O)O)CC1)N1CCC(COC2CCNCC2)CC1` [3(16), trans-4-[[4-[(4-Piperidinyl)-oxymethyl]-1-piperidinyl]-carbonylamino]-cyclohexancarbonsäure-hydrochlorid], the IC50 in data set [1] was 0.16 µM. Further, the EC50 in data set [2] came out at 0.27 µM.
On to `O=C(N[C@H]1CC[C@H](C(=O)O)CC1)N1CCC(OCC2CCNCC2)CC1` [3(17), trans-4-[[4-[(4-Piperidinyl)-methyloxy]-1-piperidinyl]-carbonylamino]-cyclohexancarbonsäure], for which the IC50 in data set [1] was 0.091 µM. Further, the EC50 in data set [2] was 0.3 µM. For the same compound, the “Mortality (verstorbene Tiere)” value in data set [3] is “keines der 3 getesteten Tiere verstarb”.
As for `O=C(N[C@H]1CC[C@H](C(=O)O)CC1)c1ccc(OCC2CCNCC2)cc1` [3(23), trans-4-[4-[(4-Piperidinyl)-methyloxy]-benzoylamino]-cyclohexancarbonsäure-hydrochlorid], in data set [1], the IC50 turned out to be 0.19 µM. In addition, in data set [2], the EC50 amounted to 0.27 µM.
On to `NCC1CCc2cc(C(=O)N[C@H]3CC[C@H](CCC(=O)O)CC3)ccc2C1` (stereo partly drawn) [3(24), 3-[trans-4-[(2-Aminomethyl-1,2,3,4-tetrahydro-6-naphthyl)-carbonylamino]-cyclohexyl]-propionsäure-hydrochlorid], for which the IC50 in data set [1] is 1.5 µM. Also, the EC50 in data set [2] amounted to 4.41 µM.
Take `O=C(N[C@H]1CC[C@H](C(=O)O)CC1)c1ccc(CCc2ccncc2)cc1` [3(30), trans-4-[4-[2-(4-Pyridyl)-ethyl]-benzoylamino]-cyclohexan-carbonsäure-hydrochlorid]: in data set [1], the IC50 is 1.2 µM. In data set [2], the EC50 was found to be 1.07 µM.
In the case of `NCCc1ccc(C(=O)N[C@H]2CC[C@H](CCC(=O)O)CC2)cc1` [3(32), trans-1-[4-(2-Amino-ethyl)-benzoylamino]-4-(2-carboxyethyl)-cyclohexan-hydrochlorid], the EC50 in data set [2] came out at 1.2 µM.
Turning to `COC(=O)[C@H]1CC[C@H](NC(=O)N2CCC(OCC3CCNCC3)CC2)CC1` [4(23), trans-4-[[4-[(4-Piperidinyl)-methyloxy]-1-piperidinyl]-carbonylamino]-cyclohexancarbonsäure-methylester-hydrochlorid], the IC50 in data set [1] came to 0.18 µM. Further, the EC50 in data set [2] was 0.37 µM. For the same compound, the “Mortality (verstorbene Tiere)” value in data set [3] is “keines der 3 getesteten Tiere verstarb”.
For the compound `NCCOc1ccc(C(=O)N[C@H]2CC[C@H](CCC(=O)O)CC2)cc1` [4(32)], the IC50 in data set [1] is 0.13 µM. Besides, in data set [2], the EC50 worked out at 0.97 µM.
On to `NCCOc1ccc(C(=O)N[C@H]2CC[C@H](OCC(=O)O)CC2)cc1` [4(34)], for which the IC50 in data set [1] is 0.84 µM. For the same compound, in data set [2], the EC50 is 3.37 µM.
Consider `O=C(N[C@H]1CC[C@H](C(=O)O)CC1)c1cccc(CCC23CCN(CC2)CC3)c1` [Beispiel 1, trans-4-[3-[2-(4-Chinuclidinyl)-ethyl]-benzoylamino]-cyclohexancarbonsäure], for which the IC50 in data set [1] came to 0.55 µM. Also, the EC50 in data set [2] stood at 1.7 µM.
Take `O=C(N[C@H]1CC[C@H](C(=O)O)CC1)c1ccc(OCC23CCN(CC2)CC3)cc1` [Beispiel 3, trans-4-[4-[(4-Chinuclidinyl)-methyloxy]-benzoylamino]-cyclohexancarbonsäure-hydrochlorid]: the IC50 in data set [1] is 0.085 µM. The EC50 in data set [2] came out at 0.36 µM. Moreover, the “Mortality (verstorbene Tiere)” value in data set [3] is “keines der 3 getesteten Tiere verstarb”.
